One block for each compound: values may come before it.
Legend:
[1] = molecular target: T1, Rhodopsin kinase GRK1 (Homo sapiens) (UniProt Q15835); test: Selectivity interaction (KinomeScan (DiscoverX)) EUB0001079a GRK1; details: at 1 µM
T1 sequence (whole entry): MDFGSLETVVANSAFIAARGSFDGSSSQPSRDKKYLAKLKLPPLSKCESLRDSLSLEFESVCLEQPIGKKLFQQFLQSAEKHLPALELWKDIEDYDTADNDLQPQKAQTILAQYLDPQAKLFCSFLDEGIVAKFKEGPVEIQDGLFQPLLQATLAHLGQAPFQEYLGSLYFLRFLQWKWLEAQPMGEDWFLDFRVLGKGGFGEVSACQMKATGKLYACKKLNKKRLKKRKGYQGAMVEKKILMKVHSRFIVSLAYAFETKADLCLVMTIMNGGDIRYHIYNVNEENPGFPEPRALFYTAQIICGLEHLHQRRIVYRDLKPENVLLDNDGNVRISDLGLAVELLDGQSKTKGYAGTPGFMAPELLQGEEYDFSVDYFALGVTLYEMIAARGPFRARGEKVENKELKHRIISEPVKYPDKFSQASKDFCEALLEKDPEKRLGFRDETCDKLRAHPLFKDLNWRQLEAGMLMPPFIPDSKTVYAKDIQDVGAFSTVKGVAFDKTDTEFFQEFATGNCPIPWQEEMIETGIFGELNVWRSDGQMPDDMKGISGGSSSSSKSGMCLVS

[2] = molecular target: Platelet-derived growth factor receptor beta (Homo sapiens, UniProt P09619); test: Selectivity interaction (Millipore kinase profiler) EUB0000124b PDGFRB; details: at 10 µM
[3] = molecular target: T2, Tyrosine-protein kinase TXK (Homo sapiens) (UniProt P42681); test: Selectivity interaction (KinomeScan (DiscoverX)) EUB0000045b TXK
T2 sequence (whole entry): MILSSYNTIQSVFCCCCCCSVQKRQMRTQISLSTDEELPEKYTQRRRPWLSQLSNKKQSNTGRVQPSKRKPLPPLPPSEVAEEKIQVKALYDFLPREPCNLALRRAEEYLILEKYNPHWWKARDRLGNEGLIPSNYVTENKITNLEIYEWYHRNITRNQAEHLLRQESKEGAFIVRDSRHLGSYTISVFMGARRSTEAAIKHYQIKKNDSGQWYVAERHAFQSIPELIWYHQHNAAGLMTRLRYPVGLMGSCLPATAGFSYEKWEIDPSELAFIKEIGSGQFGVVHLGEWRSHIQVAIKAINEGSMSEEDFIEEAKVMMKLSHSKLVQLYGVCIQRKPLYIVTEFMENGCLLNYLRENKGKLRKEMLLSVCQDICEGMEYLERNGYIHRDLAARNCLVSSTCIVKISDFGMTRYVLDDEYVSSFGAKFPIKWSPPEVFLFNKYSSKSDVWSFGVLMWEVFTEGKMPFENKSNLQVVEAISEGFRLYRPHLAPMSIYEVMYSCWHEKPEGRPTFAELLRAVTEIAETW

[4] = molecular target: T3, Eukaryotic elongation factor 2 kinase (Homo sapiens) (UniProt O00418); test: Selectivity interaction (Upstate Kinase Profiler service (Millipore)) EUB0000056c EEF2K; details: at 1 µM
T3 sequence (whole entry): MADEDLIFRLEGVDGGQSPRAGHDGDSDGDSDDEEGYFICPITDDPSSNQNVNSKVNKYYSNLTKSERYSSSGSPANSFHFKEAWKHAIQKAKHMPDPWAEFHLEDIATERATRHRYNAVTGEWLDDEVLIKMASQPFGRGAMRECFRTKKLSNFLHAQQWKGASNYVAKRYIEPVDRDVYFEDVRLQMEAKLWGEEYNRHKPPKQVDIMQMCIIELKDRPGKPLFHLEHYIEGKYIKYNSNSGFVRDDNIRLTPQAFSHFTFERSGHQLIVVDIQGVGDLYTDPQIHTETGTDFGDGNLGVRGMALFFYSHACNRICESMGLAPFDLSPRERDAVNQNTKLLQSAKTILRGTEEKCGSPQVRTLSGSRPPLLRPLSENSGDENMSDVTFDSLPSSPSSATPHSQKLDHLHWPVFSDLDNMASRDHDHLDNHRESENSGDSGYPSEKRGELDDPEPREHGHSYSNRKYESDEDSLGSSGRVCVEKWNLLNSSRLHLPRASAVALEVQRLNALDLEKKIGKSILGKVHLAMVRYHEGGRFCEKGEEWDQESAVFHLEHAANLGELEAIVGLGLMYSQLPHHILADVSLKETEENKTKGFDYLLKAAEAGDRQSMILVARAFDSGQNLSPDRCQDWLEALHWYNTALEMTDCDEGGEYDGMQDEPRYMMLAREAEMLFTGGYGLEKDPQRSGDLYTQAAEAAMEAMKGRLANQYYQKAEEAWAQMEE

[5] = molecular target: Receptor tyrosine-protein kinase erbB-4 (Homo sapiens, UniProt Q15303); test: Selectivity interaction (KinomeScan (DiscoverX)) EUB0001049a ERBB4; details: at 1 µM
[6] = molecular target: Serine/threonine-protein kinase B-raf (Homo sapiens) (UniProt P15056); test: (§1) Selectivity interaction (KinomeScan (DiscoverX)) EUB0000666a BRAF; details: at 10 µM
[7] = tested on: Serine/threonine-protein kinase B-raf (Homo sapiens), P15056 [V600E]; test: as §1; details: at 10 µM
[8] = molecular target: RAF proto-oncogene serine/threonine-protein kinase (Homo sapiens) (UniProt P04049); test: Selectivity interaction (KinomeScan (DiscoverX)) EUB0000666a RAF1; details: at 10 µM
[9] = molecular target: T4, MAP kinase-activated protein kinase 5 (Homo sapiens) (UniProt Q8IW41); test: Selectivity interaction (Kinase panel (Z-LYTE Assay)) EUB0001632a MAPKAPK5; details: at 10 µM
T4 sequence (whole entry): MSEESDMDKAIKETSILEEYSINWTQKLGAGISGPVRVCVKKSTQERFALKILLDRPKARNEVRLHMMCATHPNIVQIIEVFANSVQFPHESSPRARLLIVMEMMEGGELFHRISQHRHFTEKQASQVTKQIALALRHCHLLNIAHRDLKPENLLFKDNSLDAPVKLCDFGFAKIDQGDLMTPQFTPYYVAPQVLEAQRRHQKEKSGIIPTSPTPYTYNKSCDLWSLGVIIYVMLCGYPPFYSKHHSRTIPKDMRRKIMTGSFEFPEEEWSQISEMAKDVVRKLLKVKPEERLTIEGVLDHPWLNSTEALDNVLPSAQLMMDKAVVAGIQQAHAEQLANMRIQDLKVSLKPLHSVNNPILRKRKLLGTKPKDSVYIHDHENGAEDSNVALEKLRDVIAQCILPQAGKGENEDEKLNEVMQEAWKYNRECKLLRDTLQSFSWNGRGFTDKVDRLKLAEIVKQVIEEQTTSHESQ

Sequence of Serine/threonine-protein kinase B-raf (Homo sapiens) (P15056 whole entry): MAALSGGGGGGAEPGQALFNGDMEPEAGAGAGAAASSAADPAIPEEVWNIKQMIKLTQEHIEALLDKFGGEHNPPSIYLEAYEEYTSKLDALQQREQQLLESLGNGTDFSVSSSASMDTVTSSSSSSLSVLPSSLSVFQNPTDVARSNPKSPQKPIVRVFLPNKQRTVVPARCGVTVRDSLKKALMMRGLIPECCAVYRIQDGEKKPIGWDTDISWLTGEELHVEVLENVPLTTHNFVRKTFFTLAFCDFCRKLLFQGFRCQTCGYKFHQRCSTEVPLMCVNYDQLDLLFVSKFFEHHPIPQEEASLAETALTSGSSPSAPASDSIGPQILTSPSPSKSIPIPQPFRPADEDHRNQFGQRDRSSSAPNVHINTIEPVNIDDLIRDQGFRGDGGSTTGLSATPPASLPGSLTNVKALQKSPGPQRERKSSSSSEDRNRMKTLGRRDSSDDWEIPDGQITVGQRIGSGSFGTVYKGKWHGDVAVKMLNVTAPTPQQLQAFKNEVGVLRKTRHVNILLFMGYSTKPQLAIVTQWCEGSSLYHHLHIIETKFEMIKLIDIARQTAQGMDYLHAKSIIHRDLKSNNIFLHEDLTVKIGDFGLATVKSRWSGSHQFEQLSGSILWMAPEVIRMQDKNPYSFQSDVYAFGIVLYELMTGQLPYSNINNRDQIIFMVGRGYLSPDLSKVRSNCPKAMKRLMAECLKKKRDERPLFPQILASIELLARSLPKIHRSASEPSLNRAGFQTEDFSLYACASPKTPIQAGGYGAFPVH
Sequence of Serine/threonine-protein kinase B-raf (Homo sapiens), P15056 [V600E] (P15056 whole entry V600E): as the sequence (P15056 whole entry) above, with V600E counted along it
Sequence of RAF proto-oncogene serine/threonine-protein kinase (Homo sapiens) (P04049 whole entry): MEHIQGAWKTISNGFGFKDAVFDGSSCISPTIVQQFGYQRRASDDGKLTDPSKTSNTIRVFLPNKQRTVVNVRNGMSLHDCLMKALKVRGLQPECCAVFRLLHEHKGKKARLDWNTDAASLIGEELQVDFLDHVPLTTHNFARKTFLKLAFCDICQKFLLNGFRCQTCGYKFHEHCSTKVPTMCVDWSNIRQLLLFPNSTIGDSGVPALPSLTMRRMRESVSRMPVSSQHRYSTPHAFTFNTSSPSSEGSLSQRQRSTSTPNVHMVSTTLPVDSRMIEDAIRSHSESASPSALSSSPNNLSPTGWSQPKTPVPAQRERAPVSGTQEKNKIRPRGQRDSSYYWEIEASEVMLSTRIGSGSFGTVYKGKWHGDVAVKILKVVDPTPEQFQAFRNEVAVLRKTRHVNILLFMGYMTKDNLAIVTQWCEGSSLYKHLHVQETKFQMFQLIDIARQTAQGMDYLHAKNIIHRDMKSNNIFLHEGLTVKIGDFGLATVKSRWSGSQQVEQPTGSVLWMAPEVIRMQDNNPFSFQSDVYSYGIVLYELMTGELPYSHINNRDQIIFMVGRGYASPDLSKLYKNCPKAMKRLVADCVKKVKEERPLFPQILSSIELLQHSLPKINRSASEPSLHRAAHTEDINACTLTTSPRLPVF
Sequence of Receptor tyrosine-protein kinase erbB-4 (Q15303 whole entry): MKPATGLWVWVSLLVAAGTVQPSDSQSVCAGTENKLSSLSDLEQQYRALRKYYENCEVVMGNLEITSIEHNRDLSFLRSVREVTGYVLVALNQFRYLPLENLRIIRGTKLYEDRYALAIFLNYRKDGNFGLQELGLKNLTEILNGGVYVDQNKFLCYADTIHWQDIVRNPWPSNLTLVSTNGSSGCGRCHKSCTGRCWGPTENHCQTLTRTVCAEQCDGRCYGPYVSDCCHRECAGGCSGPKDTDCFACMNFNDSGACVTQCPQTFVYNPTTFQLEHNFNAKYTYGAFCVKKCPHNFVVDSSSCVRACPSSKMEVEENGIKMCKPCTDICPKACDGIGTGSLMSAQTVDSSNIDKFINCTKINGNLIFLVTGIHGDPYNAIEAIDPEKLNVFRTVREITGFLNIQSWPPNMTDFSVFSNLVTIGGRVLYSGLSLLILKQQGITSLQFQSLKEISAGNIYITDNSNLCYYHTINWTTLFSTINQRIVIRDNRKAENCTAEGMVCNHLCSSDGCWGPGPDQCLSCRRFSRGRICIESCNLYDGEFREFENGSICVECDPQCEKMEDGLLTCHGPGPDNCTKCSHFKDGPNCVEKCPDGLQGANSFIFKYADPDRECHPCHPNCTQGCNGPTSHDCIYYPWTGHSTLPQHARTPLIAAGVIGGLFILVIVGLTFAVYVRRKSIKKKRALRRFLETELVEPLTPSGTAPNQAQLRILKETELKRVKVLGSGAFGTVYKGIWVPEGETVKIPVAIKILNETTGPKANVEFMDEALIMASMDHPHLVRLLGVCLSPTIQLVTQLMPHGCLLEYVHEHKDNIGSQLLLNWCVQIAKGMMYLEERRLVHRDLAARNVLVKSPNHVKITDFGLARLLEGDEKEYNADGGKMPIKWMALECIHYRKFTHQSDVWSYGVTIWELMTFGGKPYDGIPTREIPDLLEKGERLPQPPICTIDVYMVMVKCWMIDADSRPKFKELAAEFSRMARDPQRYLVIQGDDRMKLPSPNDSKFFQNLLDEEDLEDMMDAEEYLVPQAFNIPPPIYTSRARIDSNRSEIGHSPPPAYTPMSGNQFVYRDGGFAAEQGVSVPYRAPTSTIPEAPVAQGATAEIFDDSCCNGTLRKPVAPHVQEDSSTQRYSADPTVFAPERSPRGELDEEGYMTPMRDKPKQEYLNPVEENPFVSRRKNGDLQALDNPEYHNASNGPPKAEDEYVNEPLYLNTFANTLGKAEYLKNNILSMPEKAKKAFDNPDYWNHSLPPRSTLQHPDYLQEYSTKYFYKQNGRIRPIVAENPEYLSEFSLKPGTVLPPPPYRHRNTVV
Sequence of Platelet-derived growth factor receptor beta (P09619 whole entry): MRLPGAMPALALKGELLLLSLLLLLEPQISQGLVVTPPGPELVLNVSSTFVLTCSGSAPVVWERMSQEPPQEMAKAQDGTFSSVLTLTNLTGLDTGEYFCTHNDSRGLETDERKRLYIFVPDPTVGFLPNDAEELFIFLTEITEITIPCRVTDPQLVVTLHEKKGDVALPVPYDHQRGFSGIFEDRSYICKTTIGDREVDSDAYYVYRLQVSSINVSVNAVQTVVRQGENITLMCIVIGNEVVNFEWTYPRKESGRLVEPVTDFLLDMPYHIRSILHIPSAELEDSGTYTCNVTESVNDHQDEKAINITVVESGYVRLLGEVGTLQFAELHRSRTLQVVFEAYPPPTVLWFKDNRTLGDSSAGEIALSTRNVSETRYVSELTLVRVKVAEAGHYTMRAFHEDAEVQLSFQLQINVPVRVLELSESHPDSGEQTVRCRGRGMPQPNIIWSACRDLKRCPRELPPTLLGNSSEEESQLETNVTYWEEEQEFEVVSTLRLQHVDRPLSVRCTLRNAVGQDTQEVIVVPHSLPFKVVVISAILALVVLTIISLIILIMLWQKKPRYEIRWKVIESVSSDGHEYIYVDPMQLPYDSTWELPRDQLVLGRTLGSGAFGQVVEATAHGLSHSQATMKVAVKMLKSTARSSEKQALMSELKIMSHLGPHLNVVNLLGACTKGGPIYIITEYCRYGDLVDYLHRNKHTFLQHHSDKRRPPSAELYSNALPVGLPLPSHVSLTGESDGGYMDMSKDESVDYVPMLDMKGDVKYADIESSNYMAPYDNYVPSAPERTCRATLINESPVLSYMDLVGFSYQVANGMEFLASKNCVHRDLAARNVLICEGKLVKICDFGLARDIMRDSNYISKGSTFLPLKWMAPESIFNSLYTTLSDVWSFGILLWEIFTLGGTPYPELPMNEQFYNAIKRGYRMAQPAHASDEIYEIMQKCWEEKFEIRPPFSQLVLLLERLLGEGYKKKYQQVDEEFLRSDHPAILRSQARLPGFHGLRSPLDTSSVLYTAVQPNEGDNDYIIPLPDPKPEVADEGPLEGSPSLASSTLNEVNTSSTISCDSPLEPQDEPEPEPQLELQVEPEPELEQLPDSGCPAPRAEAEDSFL

Compound: Nc1cnc(N2CCc3cc(S(=O)(=O)Nc4c(F)cc(Cl)cc4F)cc(N4CCCC4=O)c32)nc1 [TP-020n]
% of control [1]: 100%

% of control [2]: 111%
Compound: CC(=O)Nc1cccc(-n2c(=O)n(C3CC3)c(=O)c3c(Nc4ccc(I)cc4F)n(C)c(=O)c(C)c32)c1

Compound: C=CC(=O)Nc1cc(-n2c(=O)ccc3cnc4ccc(-c5ccc(NS(C)(=O)=O)cc5)cc4c32)ccc1C
% of control ([3]; at 1 µM): 25% | % of control ([3]; at 10 µM): 2.6%

% of inhibition [4]: -6%
Compound: Cc1ccc(-c2ccc3c(ccc4sc5c(c43)NC[C@@H](C)NC5=O)n2)cn1

Compound: COc1cc(Nc2nc(C)cc(-c3cnn4nc(OC)ccc34)n2)cc(C(F)(F)F)c1
% of control [5]: 90%

Compound: O=C(NOC[C@H](O)CO)c1ccc(F)c(F)c1Nc1ccc(I)cc1F
% of control [6]: 98% | % of control [7]: 100% | % of control [8]: 99%

% of control [9]: 7.02%
Compound: Cn1cc(-n2cnc3c(NCc4nc5cc(Cl)c(Cl)cc5[nH]4)nc(N4CCOCC4)nc32)cn1

From ChEMBL document CHEMBL5465560, “Selectivity Literature for EUbOPEN Chemogenomic Library” (2024)
